target: T1, human orexin type 2 receptor (Homo sapiens, UniProt O43614); experiment: Measurement of orexin type 2 receptor agonist activity (calcium fluorescence, Fluo-4 AM, FDSS); format: cell-based; conditions: test compound 3 μM; CHO cells expressing human OX2 receptor; DMSO = 0%, orexin A (human) = 100%
T1 construct: expressed in transfected cells
T1 sequence (O43614 1-444): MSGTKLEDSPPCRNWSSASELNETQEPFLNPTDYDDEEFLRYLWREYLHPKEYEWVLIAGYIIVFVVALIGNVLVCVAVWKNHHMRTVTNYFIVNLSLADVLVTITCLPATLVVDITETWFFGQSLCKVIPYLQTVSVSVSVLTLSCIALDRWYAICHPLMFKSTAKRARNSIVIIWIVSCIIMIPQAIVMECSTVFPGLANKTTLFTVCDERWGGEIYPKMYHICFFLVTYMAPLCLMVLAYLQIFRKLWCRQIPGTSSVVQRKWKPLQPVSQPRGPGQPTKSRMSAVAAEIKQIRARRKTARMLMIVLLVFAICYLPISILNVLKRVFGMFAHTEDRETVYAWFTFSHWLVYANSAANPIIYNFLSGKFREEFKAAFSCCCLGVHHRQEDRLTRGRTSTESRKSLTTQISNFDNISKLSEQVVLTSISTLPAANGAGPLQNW
Method in brief: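 Agonist response scaled between vehicle (0%) and human orexin A at 10 nM final (100%), from 2-min kinetic Fluo-4 fluorescence reads. Stable hOX2R CHO-K1 clone, dye-loaded in HBSS/20 mM HEPES/0.1% BSA with 1.25 mM probenecid before compound addition.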

| OX2R agonist activity (3 μM, %) | Structure (SMILES) |
| --- | --- |
| 101% | CS(=O)(=O)NC1CN(C(=O)C2CC2c2ccccc2-c2c(F)cccc2F)CCC1(F)F (racemic) [Example 129, a mixture of rac-N-{(3R)-1-[(1R,2R)-2-(2′,6′-difluoro[1,1′-biphenyl]-2-yl)cyclopropane-1-carbonyl]-4,4-difluoropiperidin-3-yl}methanesulfonamide and rac-N-{(3S)-1-[(1R,2R)-2-(2′,6′-difluoro[1,1′-biphenyl]-2-yl)cyclopropane-1-carbonyl]-4,4-difluoropiperidin-3-yl}methanesulfonamide] |
| 87% | CS(=O)(=O)NC1CN(C(=O)C2CC2c2ccccc2-c2c(F)cccc2F)CC1(F)F (racemic) [Example 130, a mixture of rac-N-{(3R)-1-[(1R,2R)-2-(2′,6′-difluoro[1,1′-biphenyl]-2-yl)cyclopropane-1-carbonyl]-4,4-difluoropyrrolidin-3-yl}methanesulfonamide and rac-N-{(3S)-1-[(1R,2R)-2-(2′,6′-difluoro[1,1′-biphenyl]-2-yl)cyclopropane-1-carbonyl]-4,4-difluoropyrrolidin-3-yl}methanesulfonamide] |
| 74% | CS(=O)(=O)NC1CCN(C(=O)C2CC2c2ccc(F)cc2-c2ccccc2Cl)C1 (racemic) [Example 134, a mixture of rac-N-{(3R)-1-[(1R,2R)-2-(2′-chloro-5-fluoro[1,1′-biphenyl]-2-yl)cyclopropane-1-carbonyl]pyrrolidin-3-yl}methanesulfonamide and rac-N-{(3S)-1-[(1R,2R)-2-(2′-chloro-5-fluoro[1,1′-biphenyl]-2-yl)cyclopropane-1-carbonyl]pyrrolidin-3-yl}methanesulfonamide] |
| 111% | CS(=O)(=O)NC1CCN(C(=O)C2CC2c2ccc(F)cc2-c2c(F)cccc2F)C1 (racemic) [Example 135, a mixture of rac-N-{(3R)-1-[(1R,2R)-2-(2′,5,6′-trifluoro[1,1′-biphenyl]-2-yl)cyclopropane-1-carbonyl]pyrrolidin-3-yl}methanesulfonamide and rac-N-{(3S)-1-[(1R,2R)-2-(2′,5,6′-trifluoro[1,1′-biphenyl]-2-yl)cyclopropane-1-carbonyl]pyrrolidin-3-yl}methanesulfonamide] |
| 110% | Cc1ccc(C2CC2C(=O)N2CCC(NS(C)(=O)=O)C2)c(-c2c(F)cccc2F)c1 (racemic) [Example 136, a mixture of rac-N-{(3R)-1-[(1R,2R)-2-(2′,6′-difluoro-5-methyl[1,1′-biphenyl]-2-yl)cyclopropane-1-carbonyl]pyrrolidin-3-yl}methanesulfonamide and rac-N-{(3S)-1-[(1R,2R)-2-(2′,6′-difluoro-5-methyl[1,1′-biphenyl]-2-yl)cyclopropane-1-carbonyl]pyrrolidin-3-yl}methanesulfonamide] |
| 59% | CS(=O)(=O)NC1CN(C(=O)C2CC2c2ccccc2-c2c(F)cccc2F)CC1F (racemic) [Example 137, a mixture of rac-N-{(3S,4R)-1-[(1R,2R)-2-(2′,6′-difluoro[1,1′-biphenyl]-2-yl)cyclopropane-1-carbonyl]-4-fluoropyrrolidin-3-yl}methanesulfonamide and rac-N-{(3R,4S)-1-[(1R,2R)-2-(2′,6′-difluoro[1,1′-biphenyl]-2-yl)cyclopropane-1-carbonyl]-4-fluoropyrrolidin-3-yl}methanesulfonamide] |

The next lines start with the molecule.

| Structure (SMILES) | OX2R agonist activity (3 μM, %) |
| --- | --- |
| CN(C)S(=O)(=O)NC1CCN(C(=O)C2CC2c2ccccc2-c2c(F)cccc2F)C1 (racemic) [Example 113, a mixture of rac-N′-{(3R)-1-[(1R,2R)-2-(2′,6′-difluoro[1,1′-biphenyl]-2-yl)cyclopropane-1-carbonyl]pyrrolidin-3-yl}-N,N-dimethylsulfuric diamide and rac-N′-{(3S)-1-[(1R,2R)-2-(2′,6-difluoro[1,1′-biphenyl]-2-yl)cyclopropane-1-carbonyl]pyrrolidin-3-yl}-N,N-dimethylsulfuric diamide] | 100% |
| CN(C)S(=O)(=O)NC1CCCN(C(=O)C2CC2c2ccccc2-c2c(F)cccc2F)CC1 (racemic) [Example 114, a mixture of rac-N′-{(4R)-1-[(1R,2R)-2-(2′,6′-difluoro[1,1′-biphenyl]-2-yl)cyclopropane-1-carbonyl]azepan-4-yl}-N,N-dimethylsulfuric diamide and rac-N′-{(4S)-1-[(1R,2R)-2-(2′,6′-difluoro[1,1′-biphenyl]-2-yl)cyclopropane-1-carbonyl]azepan-4-yl}-N,N-dimethylsulfuric diamide] | 102% |
| O=C(C1CC1c1ccccc1-c1c(F)cccc1F)N1CCCC(NS(=O)(=O)C2CC2)C1 (racemic) [Example 123, a mixture of rac-N-{(3R)-1-[(1R,2R)-2-(2′,6′-difluoro[1,1′-biphenyl]-2-yl)cyclopropane-1-carbonyl]piperidin-3-yl}cyclopropanesulfonamide and rac-N-{(3S)-1-[(1R,2R)-2-(2′,6′-difluoro[1,1′-biphenyl]-2-yl)cyclopropane-1-carbonyl]piperidin-3-yl}cyclopropanesulfonamide] | 100% |
| CS(=O)(=O)NC12CC1CN(C(=O)C1CC1c1ccccc1-c1c(F)cccc1F)C2 (racemic) [Example 124, a mixture of rac-N-{(1S,5R)-3-[(1R,2R)-2-(2′,6′-difluoro[1,1′-biphenyl]-2-yl)cyclopropane-1-carbonyl]-3-azabicyclo[3.1.0]hexan-1-yl}methanesulfonamide and rac-N-{(1R,5S)-3-[(1R,2R)-2-(2′,6′-difluoro[1,1′-biphenyl]-2-yl)cyclopropane-1-carbonyl]-3-azabicyclo[3.1.0]hexan-1-yl}methanesulfonamide] | 104% |
| CS(=O)(=O)NC1CCN(C(=O)C2CC2c2c(F)cccc2-c2ccccc2Cl)C1 (racemic) [Example 126, a mixture of rac-N-{(3R)-1-[(1R,2R)-2-(2′-chloro-3-fluoro[1,1′-biphenyl]-2-yl)cyclopropane-1-carbonyl]pyrrolidin-3-yl}methanesulfonamide and rac-N-{(3S)-1-[(1R,2R)-2-(2′-chloro-3-fluoro[1,1′-biphenyl]-2-yl)cyclopropane-1-carbonyl]pyrrolidin-3-yl}methanesulfonamide] | 89% |
| CS(=O)(=O)NCC1CCN1C(=O)C1CC1c1ccccc1-c1c(F)cccc1F (racemic) [Example 127, a mixture of rac-N-({(2R)-1-[(1R,2R)-2-(2′,6′-difluoro[1,1′-biphenyl]-2-yl)cyclopropane-1-carbonyl]azetidin-2-yl}methyl)methanesulfonamide and rac-N-({(2S)-1-[(1R,2R)-2-(2′,6′-difluoro[1,1′-biphenyl]-2-yl)cyclopropane-1-carbonyl]azetidin-2-yl}methyl)methanesulfonamide] | 57% |
| CS(=O)(=O)NCC1CCCN(C(=O)C2CC2c2ccccc2-c2c(F)cccc2F)C1 (racemic) [Example 128, a mixture of rac-N-({(3R)-1-[(1R,2R)-2-(2′,6′-difluoro[1,1′-biphenyl]-2-yl)cyclopropane-1-carbonyl]piperidin-3-yl}methyl)methanesulfonamide and rac-N-({(3S)-1-[(1R,2R)-2-(2′,6′-difluoro[1,1′-biphenyl]-2-yl)cyclopropane-1-carbonyl]piperidin-3-yl}methyl)methanesulfonamide] | 89% |
